{"source": "patent US20140271727A1", "about": "“METHOD OF USING AN ANTIDEPRESSANT FOR INCREASING IMMUNITY OF A SUBJECT AND TREATING CANCER” (NATIONAL YANG-MING UNIVERSITY, priority 2013, published 2014)", "key": {"IL-12p70": {"system": "IL-12p70", "experiment": "Serum IL-12p70 (sIL-12) ELISA in BALB/c mice", "assay_type": "in vivo, mouse", "method": "(§1) Second, all animal study protocols were approved by the Institutional Animal Care and Use Committee (IACAU) of National Yang Ming University. Mirtazapine (0.25 mg) was dissolved in 0.05 ml of 0.9% NaCl plus 0.5% absolute ethanol for each mouse (i.e. 10 mg/kg.) Male BALB/c mice (initial weights 25±2 g, and purchased from the National Laboratory Animal Center, Taipei, Taiwan) were housed in the cages, five mice per cage, under a 12:12 h reverse light/dark cycle with lights off at 6 pm Animals were handled and weighed daily for a week to reduce any non-specific stress responses. And then, please refer to FIG. 1A and FIG. 1B, FIG. 1A and FIG. 1B are diagrams showing the experimental designs according to an embodiment of the present invention. […] “Wild-type” means the mice are monitored without tumor inoculation and mirtazapine treatment, drug means the mice are monitored with continuous mirtazapine treatment but without tumor inoculation, never means the mice are monitored with tumor inoculation and daily 0.05 ml of 0.9% NaCl plus 0.5% absolute ethanol treatment but without mirtazapine treatment, always means the mice are monitored with mirtazapine treatment initiated 2 weeks before the tumor inoculation, and concurrent means the mice are monitored with tumor inoculation and mirtazapine treatment on the same day, and after means the mice are monitored with mirtazapine treatment initiated 2 weeks post the tumor inoculation. That is, the mice were assayed on day 22 for behaviors, and then sacrificed for the measurement of lymphocyte subsets and performed with ex vivo autoradiography.\n(§2) As to the quantification of interleukin-12 (hereafter called “IL-12”), the whole blood withdrawn from the pouch of each mouse was centrifuged at 600×g for 20 min, and serum was collected. The serum IL-12p70 (sIL-12) level was determined using an ELISA kit (R&D Systems, Taiwan). Identification for the lymph node cluster of differentiated CD4+ T helper and CD8+T-cytotoxic lymphocyte subsets was assayed. Briefly, the lymphocytes isolated from the lymph nodes of groins of mice were stained with phycoerythrin-conjugated antimouse CD4 (CD4-PE) monoclonal antibody and peridininchlorophyll-protein-complex-conjugated anti-mouse CD8 (CD8-PerCP) monoclonal antibody (BioLegend, USA). Lymphocyte subsets were identified by FACS analysis using a FACS Calibur flow cytometer. Immunohistochemistry (IHC) of CD4 and CD8 was also performed on day 42 post the tumor inoculation. Tumors were then removed, paraffin embedded, and […] sectioning was performed. The sections were immunohistostained with antibodies against CD4 (BioLegend, USA) and CD8 (BioLegend, USA), respectively. The procedures of immunohistostaining were followed the protocols provided with the IHC kit (Millipore, USA). All images were digitally captured on a Scanscope CS system (Aperio, USA)."}, "CD4+ and CD8+ T cells [1]": {"system": "CD4+ and CD8+ T cells", "experiment": "Lymph node CD4+ and CD8+ T lymphocyte subsets by FACS", "assay_type": "in vivo, mouse", "conditions": "flow cytometry", "method": "Preferably, the results as shown in FIG. 4C and FIG. 4D are performed by a flow cytometer, and a target cell population will be screened out by utilizing at least one flow cytometer to identify different surface markers of different cells. Flow cytometry allows for single cell analysis at speeds far surpassing any other single cell analysis technology in the art. This enables a statistically significant number of cells to be analyzed faster than using other alternative techniques. In a preferred embodiment, a flow cytometer is used with any suitable sample preparation robot or liquid handler that is known in the art. Furthermore, a single laser flow cytometer is used in an embodiment for the analyzing step. In another embodiment, a multi-laser flow cytometer is used for the analyzing step and the present invention is not limited thereto.\nas §1, §2"}, "TNF-α": {"system": "TNF-α", "experiment": "Serum TNF-α ELISA", "assay_type": "in vivo, mouse", "conditions": "tumor-bearing mice with vs without mirtazapine; weekly up to 6 weeks post tumor inoculation", "experimental": "As to the quantification of TNF-α, the whole blood withdrawn from the pouch of each mouse once a week for up to 6 weeks was centrifuged at 600×g for 20 min, and serum was collected. The serum TNF-α level was evaluated with an ELISA kit (eBioscience, USA)."}, "BALB/c mice": {"system": "BALB/c mice", "experiment": "Spontaneous motor activity assay", "assay_type": "in vivo, mouse", "conditions": "continuous mirtazapine 10 mg/kg/d (drug and always); day 22 after tumor inoculation", "method": "(§3) Second, all animal study protocols were approved by the Institutional Animal Care and Use Committee (IACAU) of National Yang Ming University. Mirtazapine (0.25 mg) was dissolved in 0.05 ml of 0.9% NaCl plus 0.5% absolute ethanol for each mouse (i.e. 10 mg/kg.) Male BALB/c mice (initial weights 25±2 g, and purchased from the National Laboratory Animal Center, Taipei, Taiwan) were housed in the cages, five mice per cage, under a 12:12 h reverse light/dark cycle with lights off at 6 pm Animals were handled and weighed daily for a week to reduce any non-specific stress responses. […] “Wild-type” means the mice are monitored without tumor inoculation and mirtazapine treatment, drug means the mice are monitored with continuous mirtazapine treatment but without tumor inoculation, never means the mice are monitored with tumor inoculation and daily 0.05 ml of 0.9% NaCl plus 0.5% absolute ethanol treatment but without mirtazapine treatment, always means the mice are monitored with mirtazapine treatment initiated 2 weeks before the tumor inoculation, and concurrent means the mice are monitored with tumor inoculation and mirtazapine treatment on the same day, and after means the mice are monitored with mirtazapine treatment initiated 2 weeks post the tumor inoculation. […]"}, "CD4+ and CD8+ T cells [2]": {"system": "CD4+ and CD8+ T cells", "experiment": "Immunohistostaining of infiltrating CD4+ and CD8+ T cells in tumor tissues", "assay_type": "in vivo, mouse", "conditions": "concurrent and always vs never; day 42 post tumor inoculation; p<0.01 and p<0.001", "experimental": "Immunohistochemistry (IHC) of CD4 and CD8 was also performed on day 42 post the tumor inoculation. Tumors were then removed, paraffin embedded, and 5-mm sectioning was performed. The sections were immunohistostained with antibodies against CD4 (BioLegend, USA) and CD8 (BioLegend, USA), respectively. The procedures of immunohistostaining were followed the protocols provided with the IHC kit (Millipore, USA). All images were digitally captured on a Scanscope CS system (Aperio, USA)."}, "[3]": {"conditions": "mouse, in vivo", "method": "as §3"}, "[4]": {"conditions": "group Always, CT26/luc tumor-bearing"}, "[5]": {"conditions": "group Concurrent, CT26/luc tumor-bearing"}, "[6]": {"conditions": "group Drug: continuous mirtazapine 10 mg/kg/d, no tumor"}, "[7]": {"conditions": "group after, CT26/luc tumor-bearing"}}, "data": [{"smiles": "CN1CCN2c3ncccc3Cc3ccccc3C2C1", "note": "(stereo not drawn) [mirtazapine]", "values": [{"measurement": "sIL-12 concentration increase", "setting": "IL-12p70; group after (never: 13 folds)", "value": 16, "unit": "folds"}, {"measurement": "sIL-12 concentration", "setting": "IL-12p70; group after, 6 weeks post tumor inoculation", "value": "dropped to the control level"}, {"measurement": "sIL-12 concentration increase to peak level", "setting": "IL-12p70; group always, peak at 1 wk post tumor cell inoculation", "value": 18, "unit": "folds"}, {"measurement": "sIL-12 concentration increase", "setting": "IL-12p70; group concurrent (never: 13 folds)", "value": 17, "unit": "folds"}, {"measurement": "sIL-12 concentration increase to peak level", "setting": "IL-12p70; group drug (no tumor), peak at 0 wk post tumor cell inoculation", "value": 13, "unit": "folds"}, {"measurement": "sIL-12 concentration", "setting": "IL-12p70; group drug, 4 wks post tumor cell inoculation, never 7 pg/ml", "value": 42, "unit": "pg/mL"}, {"measurement": "CD4+ T cells (10^4 events)", "setting": "CD4+ and CD8+ T cells [1]; [4]", "value": "29.75 ± 1.96", "unit": "%"}, {"measurement": "CD8+ T cells (10^4 events)", "setting": "CD4+ and CD8+ T cells [1]; [4]", "value": "32.77 ± 7.43", "unit": "%"}, {"measurement": "CD4+ T cells (10^4 events)", "setting": "CD4+ and CD8+ T cells [1]; [5]", "value": "25.77 ± 0.73", "unit": "%"}, {"measurement": "CD8+ T cells (10^4 events)", "setting": "CD4+ and CD8+ T cells [1]; [5]", "value": "22.41 ± 5.03", "unit": "%"}, {"measurement": "CD4+ T cells (10^4 events)", "setting": "CD4+ and CD8+ T cells [1]; [6]", "value": "30.97 ± 1.40", "unit": "%"}, {"measurement": "CD8+ T cells (10^4 events)", "setting": "CD4+ and CD8+ T cells [1]; [6]", "value": "30.95 ± 6.57", "unit": "%"}, {"measurement": "CD4+ T cells (10^4 events)", "setting": "CD4+ and CD8+ T cells [1]; [7]", "value": "22.58 ± 1.15", "unit": "%"}, {"measurement": "CD8+ T cells (10^4 events)", "setting": "CD4+ and CD8+ T cells [1]; [7]", "value": "15.86 ± 4.78", "unit": "%"}, {"measurement": "serum TNF-α level", "setting": "TNF-α", "value": "no significant difference"}, {"measurement": "spontaneous motor activity", "setting": "BALB/c mice", "value": "no effect"}, {"measurement": "infiltrating CD4+ and CD8+ cells/0.1 mm^2 tumor tissues", "setting": "CD4+ and CD8+ T cells [2]", "value": "significantly increased numbers"}, {"measurement": "body weight change (general toxicity)", "setting": "[3]", "value": "no significant body weight change"}]}]}
